# Data reported in US9663523B2, “BET protein-inhibiting 5-aryltriazoleazepines” (BAYER PHARMA AKTIENGESELLSCHAFT, priority 2012, dated 2017).
# Key:
# [1] = biological target: BRD4(1) (amino acids 44-168) (Homo sapiens (Human), UniProt O60885); experiment: BRD4 binding strength, TR-FRET (HTRF) assay of BRD4(1) / acetylated histone H4 peptide interaction; conditions: inhibition of BRD4(1)/Ac-H4 peptide interaction
# From the text: To assess the BRD4 binding strength of the compounds according to the invention, the ability thereof to inhibit the interaction between BRD4 and acetylated histone H4 in a dose-dependent manner was quantified. For this purpose, a time-resolved fluorescence resonance energy transfer (TR-FRET) assay was used, which measures the binding between N-terminally His6-tagged BRD4(1) (amino acids 44-168) and a synthetic acetylated histone H4 (Ac-H4) peptide with sequence […]-biotin. The recombinant BRD4 protein produced in-house according to Filippakopoulos et al., Cell, 2012, 149:214-231 was expressed in E. coli and purified by means of (Ni-NTA) affinity and (Sephadex G-75) size exclusion chromatography. The Ac-H4 peptide can be purchased, for example, from Biosyntan (Berlin, Germany). […] For this purpose, 100-fold concentrated solutions in DMSO were prepared by serial dilutions (1:3.4) of a 2 mM stock solution into a clear, 384-well microtitre plate (Greiner Bio-One, Frickenhausen, Germany). From this, 50 nl were transferred into a black test plate (Greiner Bio-One, Frickenhausen, Germany). […] This was followed by a 10-minute incubation step at 22° C. for the pre-equilibration of putative complexes between BRD4 and the substances. Subsequently, 3 μl of a solution of 1.67 times the concentration (in assay buffer) consisting of Ac-H4 peptide (83.5 nM) and TR-FRET detection reagents [16.7 nM anti-6His-XL665 and 3.34 nM streptavidin cryptate (both from Cisbio Bioassays, Codolet, France), and 668 mM potassium fluoride (KF)] were added. The mixture was then incubated in the dark at 22° C. for one hour and then at 4° C. overnight. The formation of BRD4/Ac-H4 complexes was determined by the measurement of the resonance energy transfer from the streptavidin-Eu cryptate to the anti-6His-XL665 antibody present in the reaction. […] The ratio of the emissions at 665 nm and at 622 nm was taken as an indicator of the amount of BRD4/Ac-H4 complexes formed.
# B16F10 cells = experiment: Cell proliferation (alamarBlue), B16F10; format: cell-based; conditions: Mus musculus, B16-F10; melanoma cell line, 96 hours incubation
# Procedure: (§1) The ability of the compounds according to the invention to inhibit the proliferation of various cell lines was determined.
# (§2) Cell viability was determined by means of the alamarBlue® reagent (Invitrogen). The cells were sown at different densities (MOLM-13, LAPC-4, MOLP-8 and MDA-MB-231: 4000 cells/well; B16F10: 400 cells/well) in 100 μl of growth medium on 96-well microtitre plates. After overnight incubation at 37° C., the fluorescence values (CI values) were determined. The plates were then treated with various substance dilutions and incubated at 37° C. for 96 hours (MOLM-13, MDA-MB-231 and B16F10 cells), 120 hours (MOLP-8 cells) or 168 hours (LAPC-4 cells). Subsequently, the fluorescence values were determined (CO values). For the data analysis, the CI values were subtracted from the CO values and the results were compared between cells which had been treated with various dilutions of the substance or only with buffer solution.
# (§3) The compounds according to the invention were tested in the cell lines in Table 2, which represent the indications specified by way of example:
# (§4) The indications corresponding to the different cell lines can be found in Table 2.
# MOLM-13 cells = experiment: Cell proliferation (alamarBlue), MOLM-13; format: cell-based; conditions: Homo sapiens, acute myeloid leukaemia cell line, 96 hours incubation
# Procedure: as §1, §2, §3, §4
# LAPC-4 cells = experiment: Cell proliferation (alamarBlue), LAPC-4; format: cell-based; conditions: Homo sapiens, LAPC4; prostate carcinoma (androgen receptor-positive) cell line, 168 hours incubation
# Procedure: as §1
# as §2, with “values).” for “values). For the data analysis, the CI values were subtracted from the CO values and the results were compared between cells which had been treated with various dilutions of the substance or only with buffer solution.”
# as §3, §4
# MOLP-8 cells = experiment: Cell proliferation (alamarBlue), MOLP-8; format: cell-based; conditions: Homo sapiens, multiple myeloma cell line, 120 hours incubation
# Procedure: as §1
# as §2, with “values).” for “values). For the data analysis, the CI values were subtracted from the CO values and the results were compared between cells which had been treated with various dilutions of the substance or only with buffer solution.”
# as §3, §4
IC50 [1] [nM],IC50 (B16F10 cells) [nM],IC50 (MOLM-13 cells) [nM],Compound,IC50 (LAPC-4 cells) [nM],IC50 (MOLP-8 cells) [nM]
30,100,120,"CCOC(=O)CC1C=C(c2ccc(Cl)cc2)c2ccccc2-n2c(C)nnc21 (stereo in doubt) [Example 2, ethyl (−)-(4R)-[6-(4-chlorophenyl)-1-methyl-4H-[1,2,4]triazolo[4,3-a][1]benzazepin-4-yl]acetate]",80,–
–,430,430,"Cc1nnc2n1-c1ccccc1C(c1ccc(Cl)cc1)=CC2CC(=O)OC(C)(C)C (stereo in doubt) [Example 9, tert-butyl (−)-[(4R)-6-(4-chlorophenyl)-1-methyl-4H-[1,2,4]triazolo[4,3-a][1]benzazepin-4-yl]acetate]",310,–
300,9470,4190,"Cc1nnc2n1-c1ccccc1C(c1cccc(Cl)c1)=CC2CC(=O)N1CC2(COC2)C1 (stereo in doubt) [Example 11, (−)-2-[(4R)-6-(3-chlorophenyl)-1-methyl-4H-[1,2,4]triazolo[4,3-a][1]benzazepin-4-yl]-1-(2-oxa-6-azaspiro[3.3]hept-6-yl)ethanone]",7890,–
40,–,170,"CC(=O)NNC(=O)CC1C=C(c2ccc(Cl)cc2)c2ccccc2-n2c(C)nnc21 (stereo in doubt) [Example 40, N′-acetyl-2-[(4R)-6-(4-chlorophenyl)-1-methyl-4H-[1,2,4]triazolo[4,3-a][1]benzazepin-4-yl]acetohydrazide]",–,80
50,60,100,"Cc1nnc2n1-c1ccccc1C(c1ccc(Cl)cc1)=CC2Cc1nnc(-c2cccnc2)o1 (stereo in doubt) [Example 45, (−)-(4R)-6-(4-chlorophenyl)-1-methyl-4-{[5-(pyridin-3-yl)-1,3,4-oxadiazol-2-yl]methyl}-4H-[1,2,4]triazolo[4,3-a][1]benzazepine]",–,–
180,300,330,"CCOC(=O)CC1C=C(c2ccc(Cl)cc2)c2ccccc2-n2c(C)nnc21 (centres unmarked) [Example 1, ethyl [6-(4-chlorophenyl)-1-methyl-4H-[1,2,4]triazolo[4,3-a][1]benzazepin-4-yl]acetate]",260,–
220,740,630,"Cc1nnc2n1-c1ccccc1C(c1ccc(Cl)cc1)=CC2CC(=O)N1CC2(COC2)C1 (centres unmarked) [Example 3, 2-[6-(4-chlorophenyl)-1-methyl-4H-[1,2,4]triazolo[4,3-a][1]benzazepin-4-yl]-1-(2-oxa-6-azaspiro[3.3]hept-6-yl)ethanone]",470,–
230,780,720,"CCOC(=O)CC1C=C(c2cccc(Cl)c2)c2ccccc2-n2c(C)nnc21 (centres unmarked) [Example 7, ethyl [6-(3-chlorophenyl)-1-methyl-4H-[1,2,4]triazolo[4,3-a][1]benzazepin-4-yl]acetate]",750,–
90,–,360,"Cc1noc(CC2C=C(c3ccc(Cl)cc3)c3ccccc3-n3c(C)nnc32)n1 (centres unmarked) [Example 34, 6-(4-chlorophenyl)-1-methyl-4-[(3-methyl-1,2,4-oxadiazol-5-yl)methyl]-4H-[1,2,4]triazolo[4,3-a][1]benzazepine]",–,–
40,–,320,"Cc1nnc(CC2C=C(c3ccc(Cl)cc3)c3ccccc3-n3c(C)nnc32)o1 (centres unmarked) [Example 39, 6-(4-chlorophenyl)-1-methyl-4-[(5-methyl-1,3,4-oxadiazol-2-yl)methyl]-4H-[1,2,4]triazolo[4,3-a][1]benzazepine]",–,–
100,–,720,"Cc1nnc(CC2C=C(c3ccc(Cl)cc3)c3ccccc3-n3c(C)nnc32)s1 (centres unmarked) [Example 41, 6-(4-chlorophenyl)-1-methyl-4-[(5-methyl-1,3,4-thiadiazol-2-yl)methyl]-4H-[1,2,4]triazolo[4,3-a][1]benzazepine]",–,410
130,–,370,"Cc1nnc2n1-c1ccccc1C(c1ccc(Cl)cc1)=CC2Cc1nnc(C2CC2)o1 (centres unmarked) [Example 43, 6-(4-chlorophenyl)-4-[(5-cyclopropyl-1,3,4-oxadiazol-2-yl)methyl]-1-methyl-4H-[1,2,4]triazolo[4,3-a][1]benzazepine]",–,210
90,–,420,"Cc1nnc2n1-c1ccccc1C(c1ccc(Cl)cc1)=CC2Cc1nnc(-c2cccnc2)o1 (centres unmarked) [Example 44, 6-(4-chlorophenyl)-1-methyl-4-{[5-(pyridin-3-yl)-1,3,4-oxadiazol-2-yl]methyl}-4H-[1,2,4]triazolo[4,3-a][1]benzazepine]",–,220
80,–,270,"Cc1nc(CC2C=C(c3ccc(Cl)cc3)c3ccccc3-n3c(C)nnc32)no1 (centres unmarked) [Example 46, 6-(4-chlorophenyl)-1-methyl-4-[(5-methyl-1,2,4-oxadiazol-3-yl)methyl]-4H-[1,2,4]triazolo[4,3-a][1]benzazepine]",–,140
50,–,150,"COc1ccc2c(c1)C(c1ccc(Cl)cc1)=CC(Cc1nnc(C)o1)c1nnc(C)n1-2 (centres unmarked) [Example 47, 6-(4-chlorophenyl)-8-methoxy-1-methyl-4-[(5-methyl-1,3,4-oxadiazol-2-yl)methyl]-4H-[1,2,4]triazolo[4,3-a][1]benzazepine]",–,90
340,–,1380,"Cc1nnc(CC2C=C(c3ccc(Cl)cc3)c3cc(-c4c(C)noc4C)ccc3-n3c(C)nnc32)o1 (centres unmarked) [Example 48, 6-(4-chlorophenyl)-8-(3,5-dimethyl-1,2-oxazol-4-yl)-1-methyl-4-[(5-methyl-1,3,4-oxadiazol-2-yl)methyl]-4H-[1,2,4]triazolo[4,3-a][1]benzazepine]",–,1620
–,2200,1690,"Cc1nnc2n1-c1ccc(OC(F)(F)F)cc1C(c1ccc(Cl)cc1)=CC2CC(=O)OC(C)(C)C (centres unmarked) [Example 49, tert-butyl [6-(4-chlorophenyl)-1-methyl-8-(trifluoromethoxy)-4H-[1,2,4]triazolo[4,3-a][1]benzazepin-4-yl]acetate]",–,1890
–,580,390,Cc1nnc2n1-c1ccc(OC(F)(F)F)cc1C(c1ccc(Cl)cc1)=C[C@H]2CC(=O)N1CC2(COC2)C1 [Example 51],–,360

Compound,IC50 [1] [nM],IC50 (B16F10 cells) [nM],IC50 (MOLM-13 cells) [nM],IC50 (LAPC-4 cells) [nM],IC50 (MOLP-8 cells) [nM]
"Cc1nnc2n1-c1ccccc1C(c1ccc(Cl)cc1)=CC2CC(=O)N1C2CCC1CC2 (stereo in doubt) [Example 6, (−)-1 (7-azabicyclo[2.2.1]hept-7-yl)-2-[(4R)-6-(4-chlorophenyl)-1-methyl-4H-[1,2,4]triazolo[4,3-a][1]benzazepin-4-yl]ethanone]",600,1020,670,1060,–
"Cc1nnc2n1-c1ccccc1C(c1ccc(Cl)cc1)=CC2CC(=O)N1C2CCC1CC2 (centres unmarked) [Example 5, 1-(7-azabicyclo[2.2.1]hept-7-yl)-2-[6-(4-chlorophenyl)-1-methyl-4H-[1,2,4]triazolo[4,3-a][1]benzazepin-4-yl]ethanone]",1400,870,1120,620,–
